# Experimental data: ChEMBL document CHEMBL4043274, “4-Hydroxy-2-pyridones: Discovery and evaluation of a novel class of antibacterial agents targeting DNA synthesis” (Bioorg Med Chem Lett, 2017)
# Key:
# Staphylococcus aureus [1] = assay: Antibacterial activity against wild-type Staphylococcus aureus ATCC 29213 by CLSI M100-S17 protocol based method; assay type: functional
# Escherichia coli [2] = assay: Antibacterial activity against wild-type Escherichia coli ATCC 25922 by CLSI M100-S17 protocol based method; assay type: functional
# Escherichia coli [3] = assay: Antibacterial activity against Escherichia coli BAS849 by CLSI M100-S17 protocol based method; assay type: functional
# Escherichia coli [4] = assay: Antibacterial activity against quinolone resistant Escherichia coli SKM18 by CLSI M100-S17 protocol based method; assay type: functional
# Escherichia coli [5] = assay: Antibacterial activity against wild-type Escherichia coli ATCC 25922 in presence of human serum albumin by CLSI M100-S17 protocol based method; assay type: functional
# Acinetobacter baumannii = assay: Antibacterial activity against Acinetobacter baumannii ATCC BAA-747 by CLSI M100-S17 protocol based method; assay type: functional
# Escherichia coli [6] = assay: Ratio of MIC in presence to absence of HSA for wild-type Escherichia coli ATCC 25922; assay type: functional
# Klebsiella pneumoniae = assay: Antibacterial activity against Klebsiella pneumoniae ATCC 35657 by CLSI M100-S17 protocol based method; assay type: functional
# [7] = Selectivity ratio of MIC for wild-type Escherichia coli ATCC 25922 to MIC for Escherichia coli BAS849; assay type: functional
# [8] = Inhibition of Escherichia coli ATCC 25922 topoisomerase-4 ParC at 100 uM using kinetoplast DNA as substrate after 60 mins relative to control
# Escherichia coli [9] = assay: Antibacterial activity against clinical isolates of Escherichia coli by broth microdilution assay; assay type: functional
# Staphylococcus aureus [10] = assay: Antibacterial activity against multidrug resistant Staphylococcus aureus by broth microdilution assay; assay type: functional
# Rattus norvegicus = assay: Dose normalized AUC (0 to 24 hrs) in Sprague-Dawley rat at 10 mg/kg, iv administered as single dose; assay type: ADME, organism-based; conditions: in vivo
# [11] = Terminal half life in Sprague-Dawley rat at 10 mg/kg, iv administered as single dose; assay type: ADME, organism-based; conditions: in vivo, read-out: beta t1/2 (converted)
# [12] = Volume of distribution at steady state in Sprague-Dawley rat at 10 mg/kg, iv administered as single dose; assay type: ADME, organism-based; conditions: in vivo, read-out: Vdss
# [13] = Oral bioavailability in Sprague-Dawley rat; assay type: ADME, organism-based; conditions: in vivo
# [14] = Protein binding in mouse plasma; assay type: ADME, cell-free; conditions: read-out: PPB (converted)
# Escherichia coli [15] = assay: Antibacterial activity against wild-type Escherichia coli ATCC 25922 infected in iv dosed CD-1 mouse assessed as mouse survival treated for 1 hr followed by reinfection with bacteria measured at 96 hrs post infection; assay type: functional; conditions: ATCC 25922, iv, read-out: PD50
# [16] = Selectivity ratio of MIC for quinolone resistant Escherichia coli SKM18 to MIC for wild-type Escherichia coli ATCC 25922; assay type: functional
SMILES,MIC (Escherichia coli [2]) [µg/mL],MIC (Escherichia coli [3]) [µg/mL],MIC (Escherichia coli [4]) [µg/mL],further results
CCc1c(-c2ccc(N(C)C)cc2)n(Cc2ccccc2)c(=O)c2c(O)cc(=O)oc12,> 12.5,,,MIC (Staphylococcus aureus [1]): 3.1 µg/mL
CN(C)c1ccc(-c2[nH]c(=O)c(C(=O)O)c(O)c2C2CC2)cc1,> 62.5,1.56,,
CCc1c(-c2ccc(C)cc2)[nH]c(=O)c(C(=O)O)c1O,> 12.5,0.78,,
CCc1cc(C(=O)O)c(=O)[nH]c1-c1ccc(N(C)C)cc1,0.78,0.03,> 62.5,
CCn1cc(C(=O)O)c(=O)cc1-c1ccc(N(C)C)cc1,6.3,0.39,> 62.5,
CCc1c(-c2ccc(N3C[C@@H]4[C@H](C3)[C@H]4N(C)C)cc2)[nH]c(=O)c(C(=O)O)c1O,6.3,0.25,12.5,MIC (Escherichia coli [5]): > 12.5 µg/mL; MIC (Acinetobacter baumannii): > 12.5 µg/mL; Ratio (Escherichia coli [6]): 4 - 8
CCc1c(-c2ccc(N3CCC(C4(N)CC4)C3)cc2)[nH]c(=O)c(C(=O)O)c1O (stereo unspecified),1.6,0.39,,MIC (Escherichia coli [5]): 12.5 µg/mL; MIC (Acinetobacter baumannii): 3.1 µg/mL; MIC (Klebsiella pneumoniae): 3.1 µg/mL; Ratio (Escherichia coli [6]): 4 - 8
CC(C)c1c(-c2ccc(N(C)C)cc2)[nH]c(=O)c(C(=O)O)c1O,12.5,0.12,> 62.5,
CCc1c(-c2ccc(OC)cc2)[nH]c(=O)c(C(=O)O)c1O,7.8,≤ 0.2,,
CN(C)c1ccc(-c2[nH]c(=O)c(C(=O)O)c(O)c2C2CCCCC2)cc1,> 62.5,6.25,,
CCc1c(-c2ccc(N(C)C)cc2)[nH]c(=O)c(C(=O)O)c1OC,> 12.5,12.5,,
CCc1c(-c2ccc(N3CC(N)C4(CC4)C3)cc2)[nH]c(=O)c(C(=O)O)c1O (stereo unspecified),3.1,0.78,6.3,
CCc1c(-c2ccc(N(C)C)c(OC)c2)[nH]c(=O)c(C(=O)O)c1O,> 12.5,6.3,,
CCc1c(-c2ccc(N3CCCCC3)cc2)[nH]c(=O)c(C(=O)O)c1O,> 62.5,0.39,,Selectivity ratio [7]: > 50; Ratio (Escherichia coli [6]): >30
CCc1c(-c2ccc(N3CCC(C4(N)CCC4)C3)cc2)[nH]c(=O)c(C(=O)O)c1O (stereo unspecified),1.6,0.39,0.19,MIC (Escherichia coli [5]): 12.5 µg/mL; MIC (Acinetobacter baumannii): 3.1 µg/mL; MIC (Klebsiella pneumoniae): 1.6 µg/mL; Ratio (Escherichia coli [6]): 4 - 8
CCc1c(-c2ccc(N(CC)CC)cc2)[nH]c(=O)c(C(=O)O)c1O,> 62.5,0.24,,Selectivity ratio [7]: > 50
CCc1c(-c2ccc(Cl)cc2)[nH]c(=O)c(C(=O)O)c1O,> 12.5,1.6,,
CCc1c(-c2ccc(N3CC4CCCNC4C3)cc2)[nH]c(=O)c(C(=O)O)c1O (stereo unspecified),0.78,0.19,3.1,IC50 [8]: 15.7 µM; MIC (Escherichia coli [5]): 1.6 µg/mL; MIC (Acinetobacter baumannii): 1.6 µg/mL; MIC (Klebsiella pneumoniae): 0.8 µg/mL; MIC (Escherichia coli [9]): 0.125 to 2 µg/mL; MIC50 (Escherichia coli [9]): 0.5 µg/mL; MIC90 (Escherichia coli [9]): 2 µg/mL; MIC (Staphylococcus aureus [10]): 0.125 to 16 µg/mL; MIC50 (Staphylococcus aureus [10]): 0.5 µg/mL; MIC90 (Staphylococcus aureus [10]): 8 µg/mL; Ratio (Escherichia coli [6]): <4; AUC/dose (Rattus norvegicus): 13.9 µg·h/mL; half-life [11]: 234 min; Vd [12]: 2.9 L/kg; bioavailability [13]: 8%; fraction unbound [14]: 0.27; ED50 (Escherichia coli [15]): > 20 mg/kg
CCc1c(-c2ccc(N3CCC(N(C)C)C3)cc2)[nH]c(=O)c(C(=O)O)c1O (stereo unspecified),0.78,0.19,3.1,MIC (Escherichia coli [5]): 3.1 µg/mL; MIC (Acinetobacter baumannii): 1.6 µg/mL; MIC (Klebsiella pneumoniae): 1.6 µg/mL; Ratio (Escherichia coli [6]): <4; Selectivity ratio [16]: < 4
CN(C)c1ccc(-c2[nH]c(=O)c(C(=O)O)c(O)c2Cc2ccccc2)cc1,> 12.5,> 12.5,,
CCc1c(-c2ccc(N(C)C)cc2OC)[nH]c(=O)c(C(=O)O)c1O,> 12.5,6.3,,
